The source made the active and inactive calls.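 Rule for the calls: active = IC50 at or below 10 µM; inactive = IC50 above 10 µM.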 Some results are limits rather than exact numbers.

Chain of Induced myeloid leukemia cell differentiation protein Mcl-1 (Homo sapiens) (Q07820 whole entry, looked up): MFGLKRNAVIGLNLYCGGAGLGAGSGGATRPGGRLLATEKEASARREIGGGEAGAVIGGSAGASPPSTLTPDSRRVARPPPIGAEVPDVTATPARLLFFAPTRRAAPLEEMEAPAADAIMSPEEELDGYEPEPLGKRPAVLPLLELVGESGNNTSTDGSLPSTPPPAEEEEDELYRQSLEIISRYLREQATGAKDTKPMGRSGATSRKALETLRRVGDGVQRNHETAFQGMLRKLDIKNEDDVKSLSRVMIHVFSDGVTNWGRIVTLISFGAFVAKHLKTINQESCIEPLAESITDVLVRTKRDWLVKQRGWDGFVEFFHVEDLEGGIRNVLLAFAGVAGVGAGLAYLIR

The experiment concerns the target Induced myeloid leukemia cell differentiation protein Mcl-1 (Homo sapiens) (UniProt Q07820). In words: MCL1 binding to BIM-BH3 peptide, inhibitors, late-stage follow-up, biochemical, fluorescence polarization, assay provider data, powder samples (AID 493086). The settings on record: GST-MCL1 / FITC-BIM-BH3 fluorescence polarization.
A word on the IC50: it is the point on the concentration scale where inhibition reaches its midpoint. With `COc1ccc(Cc2nnc(NC(=O)Cc3ccccn3)s2)cc1OC`, the IC50 is > 20 µM (inactive).

Take `COc1ccc(Cc2nnc(NC(=O)Cc3cccs3)s2)cc1`: the IC50 was > 20 µM (inactive). Then `CCOC(=O)c1cc(-c2ccco2)nc2c1c(C)nn2-c1ccccc1`, with > 20 µM (inactive). To `Cc1ccc(-c2cc(C(=O)NCCCn3ccnc3)c3cc(Br)ccc3n2)o1` belongs “inactive”; to `CCCCn1c(N)c(N(CCC(C)C)C(=O)c2cc(-c3ccco3)nc3ccccc23)c(=O)[nH]c1=O`, > 20 µM (inactive); to `Cc1ccc(-c2cc(C(=O)Nc3cccnc3)c3ccccc3n2)o1`, “inactive”.

In the case of `COc1ccc(NC(=O)c2cc(-c3ccco3)nc3ccccc23)cc1`, the IC50 was > 20 µM (inactive). Then `COc1ccc(Cc2nnc(NC(=O)Cc3ccncc3)s2)cc1OC`, with > 20 µM (inactive). To `COc1ccc(NC(=O)c2cc(-c3ccc(C)o3)nc3ccccc23)cc1` belongs > 20 µM (inactive); to `CCOc1cc(N2CCOCC2)c(OCC)cc1NC(=O)c1cc(-c2ccco2)nc2ccccc12`, > 20 µM (inactive); to `COc1ccc(Cc2nnc(NC(=O)CCc3cccs3)s2)cc1OC`, > 20 µM (inactive). Then `Cc1ccc(-c2cc(C(=O)Nc3nccs3)c3ccccc3n2)o1`, with > 20 µM (inactive). Consider `CCN(CC)CCNC(=O)c1cc(-c2ccco2)nc2ccccc12`, for which the IC50 is > 20 µM (inactive).

With `Cc1ccc(-c2cc(C(=O)NCC(c3ccccc3)N(C)C)c3ccccc3n2)o1` (stereo unspecified), the IC50 is > 20 µM (inactive).

Consider `CCCCN(C(=O)c1cc(-c2ccco2)nc2ccccc12)c1c(N)n(CCC)c(=O)[nH]c1=O`, for which the IC50 is > 20 µM (inactive). Then `COc1cccc(NC(=O)c2cc(-c3ccco3)nc3ccccc23)c1`, with > 20 µM (inactive). To `O=C(NCC1CCCO1)c1cc(-c2ccco2)nc2ccccc12` (stereo unspecified) belongs “inactive”. In the case of `COc1ccc(Cc2nnc(NC(=O)Cc3ccc(Oc4ccccc4)cc3)s2)cc1OC`, the IC50 is > 20 µM (inactive).

With `COc1ccc(NC(=O)c2cc(-c3ccco3)nc3ccccc23)cc1S(=O)(=O)N1CCOCC1`, the IC50 entry was “inactive”. To `NS(=O)(=O)c1ccc(CCNC(=O)c2cc(-c3ccco3)nc3ccccc23)cc1` belongs > 20 µM (inactive); to `Cc1ccc(-c2cc(C(=O)Nc3ccccc3C(N)=O)c3ccccc3n2)o1`, > 20 µM (inactive); to `O=C(Nc1nncs1)c1cc(-c2ccco2)nc2ccccc12`, “inactive”. Then `COc1ccc(Cc2nnc(NC(=O)Cc3ccccc3C)s2)cc1OC`, with > 20 µM (inactive).

As to `Cc1ccc2nc(NC(=O)c3cc(-c4ccco4)nc4ccccc34)sc2c1`, the IC50 was > 20 µM (inactive). Take `Cc1ccc(-c2cc(C(=O)N3CCN(c4ccc(F)cc4)CC3)c3ccccc3n2)o1`: the IC50 was > 20 µM (inactive). `COc1ccccc1CC(=O)Nc1nnc(Cc2ccc(OC)c(OC)c2)s1`: the IC50 was > 20 µM (inactive). For the compound `Cc1ccc(S(=O)(=O)N(C)C)cc1NC(=O)c1cc(-c2ccco2)nc2ccccc12`, the IC50 was > 20 µM (inactive). Then `Cc1ccc(-c2cc(C(=O)N3CCN(c4ncccn4)CC3)c3cc(Br)ccc3n2)o1`, with “inactive”; and `Cc1ccc(-c2cc(C(=O)N3CC(C)CC(C)C3)c3ccccc3n2)o1` (stereo unspecified), with > 20 µM (inactive); and `COc1ccc(Cc2nnc(NC(=O)Cc3ccc(-c4ccccc4)cc3)s2)cc1OC`, with > 20 µM (inactive).

With `O=C(NC1CC1)c1cc(-c2ccco2)nc2ccccc12`, the IC50 was 4.4 µM. Then `O=C(CCn1nnc2ccccc21)Nc1nnc(Cc2ccccc2)s1`, with > 20 µM (inactive); and `O=C(Nc1ccccc1F)c1cc(-c2ccco2)nc2ccccc12`, with “inactive”. In the case of `O=C(NC1CCC(O)CC1)c1cc(-c2ccco2)nc2ccccc12` (stereo unspecified), the IC50 entry is “inactive”. Then `Cc1ccc(NC(=O)c2cc(-c3ccc(C)o3)nc3ccccc23)cc1`, with > 20 µM (inactive); and `COc1ccc(Cc2nnc(NC(=O)C(F)c3ccccc3)s2)cc1OC` (stereo unspecified), with > 20 µM (inactive).

Take `Cc1ccc(-c2cc(C(=O)Nc3ccccn3)c3ccccc3n2)o1`: the IC50 result was “inactive”. To `CCCN(C(=O)c1cc(-c2ccco2)nc2ccccc12)c1c(N)n(Cc2ccccc2)c(=O)[nH]c1=O` belongs “inactive”; to `Cc1nnc(NC(=O)c2cc(-c3ccco3)nc3ccccc23)s1`, “inactive”. To `CCc1nnc(NC(=O)c2cc(-c3ccco3)nc3ccccc23)s1` belongs “inactive”; to `CN(C)C(CNC(=O)c1cc(-c2ccco2)nc2ccccc12)c1ccccc1` (stereo unspecified), > 20 µM (inactive).

As for `O=C(c1cc(-c2ccco2)nc2ccccc12)N1CCN(c2ccc(F)cc2)CC1`, the IC50 is > 20 µM (inactive). Take `COc1ccc(Cc2nnc(NC(=O)Cc3sc(=S)[nH]c3C)s2)cc1OC`: the IC50 is > 20 µM (inactive). Then `Cc1ccc(-c2cc(C(=O)N3CCN(c4ccccc4O)CC3)c3ccccc3n2)o1`, with > 20 µM (inactive); and `COc1ccc(Cc2nnc(NC(=O)Cc3ccsc3)s2)cc1OC`, with > 20 µM (inactive); and `CCc1nnc(NC(=O)c2cc(-c3ccc(C)o3)nc3ccccc23)s1`, with > 20 µM (inactive). To `COc1cccc(NC(=O)CN(C)C(=O)c2cc(-c3ccc(C)o3)nc3ccccc23)c1` belongs > 20 µM (inactive); to `COCCCN(C(=O)c1cc(-c2ccco2)nc2ccccc12)c1c(N)n(Cc2ccccc2)c(=O)[nH]c1=O`, > 20 µM (inactive); to `CC1CCCN(C(=O)c2cc(-c3ccco3)nc3ccccc23)C1` (stereo unspecified), > 20 µM (inactive).

For the compound `CCCCN(C(=O)c1cc(-c2ccco2)nc2ccccc12)c1c(N)n(CCCC)c(=O)[nH]c1=O`, the IC50 was > 20 µM (inactive). To `Cc1ccc(-c2cc(C(=O)N3CCCC(C(F)(F)F)C3)c3ccccc3n2)o1` (stereo unspecified) belongs > 20 µM (inactive); to `COc1ccc(Cc2nnc(NC(=O)Cc3cccnc3)s2)cc1OC`, > 20 µM (inactive).

For the compound `CN(CCOc1ccccc1)C(=O)c1cc(-c2ccco2)nc2ccccc12`, the IC50 was > 20 µM (inactive). Then `COc1ccc(NC(=O)CN(C)C(=O)c2cc(-c3ccc(C)o3)nc3ccccc23)cc1`, with > 20 µM (inactive); and `COc1ccc(Cc2nnc(NC(=O)Cc3c[nH]c4ccccc34)s2)cc1OC`, with > 20 µM (inactive). Then `COc1cccc(NC(=O)c2cc(-c3ccc(C)o3)nc3ccccc23)c1`, with > 20 µM (inactive). Then `O=C(c1cc(-c2ccco2)nc2ccccc12)N1CCN(Cc2ccccc2)CC1`, with > 20 µM (inactive). As for `O=C(Nc1cccc(S(=O)(=O)NC2=NCCC2)c1)c1cc(-c2ccco2)nc2ccccc12`, the IC50 entry is “inactive”. Then `CCOC(=O)c1cc(-c2ccco2)nc2c1c(C)nn2-c1cccc(Cl)c1`, with > 20 µM (inactive). To `Cc1ccc(-c2cc(C(=O)Nc3cccc(S(=O)(=O)N(C)C)c3)c3ccccc3n2)o1` belongs > 20 µM (inactive); to `COc1ccc(CCNC(=O)c2cc(-c3ccco3)nc3ccccc23)cc1`, > 20 µM (inactive).

These data come from PubChem BioAssay AID493086 (The Scripps Research Institute Molecular Screening Center, 2011).
